pIC50: −log10 of the molar value. Where two headings read alike, the source gives them in different places.
Columns and labels:
[1] = target: JH2 domain of human Tyk2 (Homo sapiens (Human), UniProt P29597); experiment: JH2 Biochemical Assay (TR-FRET probe displacement); format: binding
[2] = target: Tyk2 (Homo sapiens (Human), UniProt P29597); experiment: pSTAT4 Cell Assay (MSD, NK92 cells); format: cell-based
[3] = JH2 domain of human Tyk2, TR-FRET probe displacement
[4] = TR-FRET probe displacement, JH2 domain of human Tyk2
[5] = TR-FRET probe displacement, JH2 domain

Tyk2, sequence (P29597 whole entry, the tested form may be a part): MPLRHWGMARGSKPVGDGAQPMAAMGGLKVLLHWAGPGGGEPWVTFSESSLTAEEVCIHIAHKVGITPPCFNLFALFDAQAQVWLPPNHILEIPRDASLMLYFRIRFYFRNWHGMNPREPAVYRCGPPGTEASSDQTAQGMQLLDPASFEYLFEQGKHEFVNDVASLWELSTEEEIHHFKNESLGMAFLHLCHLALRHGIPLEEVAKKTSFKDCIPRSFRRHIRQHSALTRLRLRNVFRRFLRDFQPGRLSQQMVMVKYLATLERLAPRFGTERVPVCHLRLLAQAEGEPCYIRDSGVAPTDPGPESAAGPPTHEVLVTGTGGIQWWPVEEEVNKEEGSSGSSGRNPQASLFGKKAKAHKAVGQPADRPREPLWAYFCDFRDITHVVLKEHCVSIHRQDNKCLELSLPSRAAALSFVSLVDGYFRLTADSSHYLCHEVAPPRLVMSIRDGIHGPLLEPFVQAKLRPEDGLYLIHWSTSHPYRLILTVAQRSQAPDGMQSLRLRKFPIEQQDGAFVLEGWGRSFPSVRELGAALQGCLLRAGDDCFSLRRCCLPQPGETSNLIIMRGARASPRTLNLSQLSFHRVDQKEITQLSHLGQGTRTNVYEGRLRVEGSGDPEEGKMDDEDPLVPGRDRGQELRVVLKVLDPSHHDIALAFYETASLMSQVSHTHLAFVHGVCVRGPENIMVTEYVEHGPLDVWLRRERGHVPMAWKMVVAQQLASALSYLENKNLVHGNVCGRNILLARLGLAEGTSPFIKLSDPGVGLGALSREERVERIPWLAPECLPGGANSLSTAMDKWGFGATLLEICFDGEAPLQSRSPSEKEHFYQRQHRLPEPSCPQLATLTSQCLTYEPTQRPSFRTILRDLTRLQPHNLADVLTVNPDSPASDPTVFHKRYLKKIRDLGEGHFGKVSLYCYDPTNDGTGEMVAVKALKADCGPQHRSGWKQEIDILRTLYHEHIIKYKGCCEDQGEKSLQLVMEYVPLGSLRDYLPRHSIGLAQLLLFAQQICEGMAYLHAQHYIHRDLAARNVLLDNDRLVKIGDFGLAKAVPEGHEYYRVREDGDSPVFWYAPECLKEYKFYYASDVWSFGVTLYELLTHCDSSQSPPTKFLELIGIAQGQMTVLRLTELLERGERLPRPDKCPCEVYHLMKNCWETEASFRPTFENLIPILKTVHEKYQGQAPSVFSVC
JH2 domain of human Tyk2, sequence (P29597 575-876): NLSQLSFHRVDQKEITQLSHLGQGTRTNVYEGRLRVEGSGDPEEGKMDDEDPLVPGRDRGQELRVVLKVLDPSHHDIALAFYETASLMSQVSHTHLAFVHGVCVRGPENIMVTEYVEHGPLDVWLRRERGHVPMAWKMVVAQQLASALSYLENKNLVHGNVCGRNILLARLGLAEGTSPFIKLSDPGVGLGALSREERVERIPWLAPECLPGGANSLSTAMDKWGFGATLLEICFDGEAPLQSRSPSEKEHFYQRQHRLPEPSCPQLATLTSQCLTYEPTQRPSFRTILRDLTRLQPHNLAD

Structure (SMILES) | pIC50 [1, 3] | pIC50 ([2]; MSD) | pIC50 [1, 4] | pIC50 [1, 5] | pIC50 [2]
CC(=O)Nc1cc(Nc2ccnc(C(C)(F)F)n2)c(-c2cnc(C(C)(F)F)cn2)cn1 [Example 695, N-(5-(5-(1,1-difluoroethyl)pyrazin-2-yl)-4-((2-(1,1-difluoroethyl)pyrimidin-4-yl)amino)pyridin-2-yl)acetamide] | ≥ 8.00 | 6.00 to 7.00 |  |  | 
CC(=O)Nc1cc(Nc2ccnc(C(C)(F)F)n2)c(-c2ccn3ncnc3n2)cn1 [Example 537, N-(5-([1,2,4]triazolo[1,5-a]pyrimidin-5-yl)-4-((2-(1,1-difluoroethyl)pyrimidin-4-yl)amino)pyridin-2-yl)acetamide] | ≥ 8.00 | 7.00 to 8.00 |  |  | 
CC(=O)Nc1cc(Nc2cc(C)nc(C(C)(F)F)n2)c(OC2CC2)cn1 [Example 45, N-(5-cyclopropoxy-4-((2-(1,1-difluoroethyl)-6-methylpyrimidin-4-yl)amino)pyridin-2-yl)acetamide] |  | 7.00 to 8.00 | ≥ 8.00 |  | 
CC(=O)Nc1cc(Nc2ccnc(C(C)(F)F)n2)c(-c2cnc(C3CC3)cn2)cn1 [Example 694, N-(5-(5-cyclopropylpyrazin-2-yl)-4-((2-(1,1-difluoroethyl)pyrimidin-4-yl)amino)pyridin-2-yl)acetamide] | ≥ 8.00 | 7.00 to 8.00 |  |  | 
CCc1cc(Nc2cc(NC(C)=O)ncc2F)nc(C(C)(F)F)n1 [Example 816, N-(4-((2-(1,1-difluoroethyl)-6-ethylpyrimidin-4-yl)amino)-5-fluoropyridin-2-yl)acetamide] |  |  |  | ≥ 8.00 | 6.00 to 7.00
COc1cc(Nc2cc(NC(C)=O)ncc2-c2ncc(F)cn2)nc(C(C)(F)F)c1 [Example 191, N-(4-((6-(1,1-difluoroethyl)-4-methoxypyridin-2-yl)amino)-5-(5-fluoropyrimidin-2-yl)pyridin-2-yl)acetamide] |  | 7.00 to 8.00 | ≥ 8.00 |  | 
COc1cnc(NC(C)=O)cc1Nc1cc(-c2cnn(CCN3CCOCC3)c2)nc(C(C)(F)F)n1 [Example 379, N-(4-((2-(1,1-difluoroethyl)-6-(1-(2-morpholinoethyl)-1H-pyrazol-4-yl)pyrimidin-4-yl)amino)-5-methoxypyridin-2-yl)acetamide] | ≥ 8.00 | 7.00 to 8.00 |  |  | 
CC(=O)Nc1cc(Nc2cc(C)nc(C(C)(F)F)n2)c(-c2cccc(OC(F)F)n2)cn1 [Example 150, N-(4′-((2-(1,1-difluoroethyl)-6-methylpyrimidin-4-yl)amino)-6-(difluoromethoxy)-[2,3′-bipyridin]-6′-yl)acetamide] |  | ≥ 8.00 | ≥ 8.00 |  | 
CC(=O)Nc1cc(Nc2cc(OC3CC3)nc(C(C)(F)F)n2)c(O[C@H]2C[C@H](F)C2)cn1 [Example 352, N-(4-((6-cyclopropoxy-2-(1,1-difluoroethyl)pyrimidin-4-yl)amino)-5-((1r,3r)-3-fluorocyclobutoxy)pyridin-2-yl)acetamide] |  | 7.00 to 8.00 | ≥ 8.00 |  | 
COCCOc1ccnc(Nc2cc(NC(C)=O)ncc2-c2ccn(C)n2)n1 [Example 550, N-(4-((4-(2-methoxyethoxy)pyrimidin-2-yl)amino)-5-(1-methyl-1H-pyrazol-3-yl)pyridin-2-yl)acetamide] | ≥ 8.00 | 6.00 to 7.00 |  |  | 
CC(=O)Nc1cc(Nc2cc(C)nc(C(C)(F)F)n2)c(-c2ccc(C)nn2)cn1 [Example 219, N-(4-((2-(1,1-difluoroethyl)-6-methylpyrimidin-4-yl)amino)-5-(6-methylpyridazin-3-yl)pyridin-2-yl)acetamide] |  | ≥ 8.00 | ≥ 8.00 |  | 
CC(=O)Nc1cc(Nc2ccnc(C(C)(F)F)n2)c(OC(C)C)cn1 [Example 8, N-(4-((2-(1,1-difluoroethyl)pyrimidin-4-yl)amino)-5-isopropoxypyridin-2-yl)acetamide] |  | 6.00 to 7.00 | ≥ 8.00 |  | 
CC(=O)Nc1cc(Nc2cc(C)nc(C(C)(F)F)n2)c(-c2cc(N(C)C)ncn2)cn1 [Example 247, N-(4-((2-(1,1-difluoroethyl)-6-methylpyrimidin-4-yl)amino)-5-(6-(dimethylamino)pyrimidin-4-yl)pyridin-2-yl)acetamide] |  | ≤ 6.00 | ≥ 8.00 |  | 
COC1CCN(Cc2ccc(-c3cnc(NC(C)=O)cc3Nc3ccnc(C(C)(F)F)n3)nc2)C1 (stereo not shown) [Example 881, N-(4′-((2-(1,1-difluoroethyl)pyrimidin-4-yl)amino)-5-((3-methoxypyrrolidin-1-yl)methyl)-[2,3′-bipyridin]-6′-yl)acetamide] |  |  |  | ≥ 8.00 | ≥ 8.00
COCCOc1nccc(Nc2cc(NC(C)=O)ncc2-c2ccn(C)n2)n1 [Example 549, N-(4-((2-(2-methoxyethoxy)pyrimidin-4-yl)amino)-5-(1-methyl-1H-pyrazol-3-yl)pyridin-2-yl)acetamide] | ≥ 8.00 | 6.00 to 7.00 |  |  | 
COc1ncc(-c2cnc(NC(C)=O)cc2Nc2ccnc(C(C)(F)F)n2)nc1OC [Example 686, N-(4-((2-(1,1-difluoroethyl)pyrimidin-4-yl)amino)-5-(5,6-dimethoxypyrazin-2-yl)pyridin-2-yl)acetamide] | 7.00 to 8.00 | ≤ 6.00 |  |  | 
CC(=O)Nc1cc(Nc2cc(C)nc(C(C)(F)F)n2)c(-c2ccc(COC(F)F)cn2)cn1 [Example 524, N-(4′-((2-(1,1-difluoroethyl)-6-methylpyrimidin-4-yl)amino)-5-((difluoromethoxy)methyl)-[2,3′-bipyridin]-6′-yl)acetamide] | ≥ 8.00 | ≥ 8.00 |  |  | 
COc1cc(Nc2cc(NC(C)=O)ncc2OC)nc(C(C)(F)F)n1 [Example 18, N-(4-((2-(1,1-difluoroethyl)-6-methoxypyrimidin-4-yl)amino)-5-methoxypyridin-2-yl)acetamide] |  | 7.00 to 8.00 | ≥ 8.00 |  | 
CC(=O)Nc1cc(Nc2cc(C)nc(C(C)(F)F)n2)c(-c2nccc(C)n2)cn1 [Example 671, N-(4-((2-(1,1-difluoroethyl)-6-methylpyrimidin-4-yl)amino)-5-(4-methylpyrimidin-2-yl)pyridin-2-yl)acetamide] | ≥ 8.00 | 7.00 to 8.00 |  |  | 
CCOc1cnc(NC(C)=O)cc1Nc1cc(O[C@H]2C[C@H](OC)C2)nc(C)n1 [Example 519, N-(5-ethoxy-4-((6-((1r,3r)-3-methoxycyclobutoxy)-2-methylpyrimidin-4-yl)amino)pyridin-2-yl)acetamide] | 6.00 to 7.00 | 6.00 to 7.00 |  |  | 
CCc1cc(Nc2cc(NC(C)=O)ncc2-c2cnc(OC)cn2)nc(C(C)(F)F)n1 [Example 829, N-(4-((2-(1,1-difluoroethyl)-6-ethylpyrimidin-4-yl)amino)-5-(5-methoxypyrazin-2-yl)pyridin-2-yl)acetamide] |  |  |  | ≥ 8.00 | 7.00 to 8.00
CC(=O)Nc1cc(Nc2cc(C)nc(C(C)(F)F)n2)c(-c2cnn(C)c2)cn1 [Example 812, N-(4-((2-(1,1-difluoroethyl)-6-methylpyrimidin-4-yl)amino)-5-(1-methyl-1H-pyrazol-4-yl)pyridin-2-yl)acetamide] |  |  |  | 7.00 to 8.00 | ≤ 6.00
CCn1cc(COc2cnc(NC(C)=O)cc2Nc2cc(C)nc(C(C)(F)F)n2)cn1 [Example 509, N-(4-((2-(1,1-difluoroethyl)-6-methylpyrimidin-4-yl)amino)-5-((1-ethyl-1H-pyrazol-4-yl)methoxy)pyridin-2-yl)acetamide] | ≥ 8.00 | 7.00 to 8.00 |  |  | 

Reference: patent publication US20260028365A1 (BIOGEN MA INC., priority 2022, published 2026)
